Experiments:
[1] = molecular target: Sodium-dependent serotonin transporter (Rattus norvegicus, UniProt P31652); assay: In vitro affinity at the 5-HT reuptake site using [3H]paroxetine as radioligand in rat frontal cortex membranes; assay type: cell membranes, Membrane
[2] = molecular target: T1, 5-hydroxytryptamine receptor 1A (Homo sapiens) (UniProt P08908); assay: In vitro binding affinity towards 5-hydroxytryptamine 1A receptor using [3H]8-OH-DPAT as radioligand; conditions: concentration not given here
T1 sequence (whole entry): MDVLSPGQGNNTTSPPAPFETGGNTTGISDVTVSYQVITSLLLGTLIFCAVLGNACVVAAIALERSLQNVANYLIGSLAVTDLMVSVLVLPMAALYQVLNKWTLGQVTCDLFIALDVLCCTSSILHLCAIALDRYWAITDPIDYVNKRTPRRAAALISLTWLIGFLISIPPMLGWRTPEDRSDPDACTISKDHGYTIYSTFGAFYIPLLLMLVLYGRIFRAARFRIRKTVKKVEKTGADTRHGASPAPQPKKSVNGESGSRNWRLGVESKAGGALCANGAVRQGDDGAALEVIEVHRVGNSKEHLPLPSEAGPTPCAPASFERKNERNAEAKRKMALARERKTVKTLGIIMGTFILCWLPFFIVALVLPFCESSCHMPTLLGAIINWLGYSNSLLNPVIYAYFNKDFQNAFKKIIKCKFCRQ

[3] = molecular target: T2, 5-hydroxytryptamine receptor 1A (Homo sapiens, UniProt P08908); assay: (§1) Inhibition of 5-HT induced [35S]GTP-gamma-S, binding at human cloned 5-HT 1A receptors.; assay type: functional
T2 sequence (P08908 whole entry): T1 sequence (whole entry)

[4] = molecular target: T1, 5-hydroxytryptamine receptor 1A (Homo sapiens); assay: Stimulation of binding of [35S]GTP-gamma-S, to G protein mediated by human cloned 5-hydroxytryptamine 1A receptor tested in vitro at 1 uM.; assay type: functional
[5] = molecular target: T1, 5-hydroxytryptamine receptor 1A (Homo sapiens); assay: as §1; assay type: functional
[6] = molecular target: T2, 5-hydroxytryptamine receptor 1A; assay: In vitro binding affinity at 5-hydroxytryptamine 1A receptor by [3H]8-OH-DPAT displacement.

Chain of Sodium-dependent serotonin transporter (P31652 whole entry): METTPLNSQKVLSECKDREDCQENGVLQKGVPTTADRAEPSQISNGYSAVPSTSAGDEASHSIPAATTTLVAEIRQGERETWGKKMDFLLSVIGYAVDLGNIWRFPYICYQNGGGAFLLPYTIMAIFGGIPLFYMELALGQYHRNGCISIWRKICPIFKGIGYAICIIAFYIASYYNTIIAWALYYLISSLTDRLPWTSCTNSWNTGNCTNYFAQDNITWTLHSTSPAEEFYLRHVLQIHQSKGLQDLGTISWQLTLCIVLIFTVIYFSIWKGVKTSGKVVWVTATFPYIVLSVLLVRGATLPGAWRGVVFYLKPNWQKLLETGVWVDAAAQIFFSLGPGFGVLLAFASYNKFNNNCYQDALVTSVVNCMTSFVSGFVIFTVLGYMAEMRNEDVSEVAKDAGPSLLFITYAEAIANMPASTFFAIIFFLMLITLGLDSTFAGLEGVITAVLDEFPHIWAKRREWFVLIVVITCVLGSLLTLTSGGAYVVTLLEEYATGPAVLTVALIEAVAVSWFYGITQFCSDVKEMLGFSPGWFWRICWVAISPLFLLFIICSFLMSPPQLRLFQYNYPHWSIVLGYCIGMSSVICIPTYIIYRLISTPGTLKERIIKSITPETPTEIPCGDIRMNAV

| Compound | Ki [1] [nM] | inhibition [2] [%] | Ki [3] [nM] | Stimulation [4] [%] | Emin [5] [%] | Ki [6] [nM] |
| --- | --- | --- | --- | --- | --- | --- |
| C[C@H]1C[C@H](c2cc3c(Cl)cccc3s2)CCN1C[C@H](O)COc1cccc2[nH]ccc12 | 0.69 | < 50 |  |  |  |  |
| C[C@H]1C[C@H](c2cc3c(F)cccc3s2)CCN1C[C@H](O)COc1cccc2[nH]ccc12 | 1.16 |  | 4.88 | 5.37 | 7.44 |  |
| C[C@H]1C[C@H](c2cc3c(C(F)(F)F)cccc3s2)CCN1C[C@H](O)COc1cccc2[nH]ccc12 | 3.46 |  |  |  |  | 24.2 |
| Cc1cccc2sc([C@@H]3CCN(C[C@H](O)COc4cccc5[nH]ccc45)[C@@H](C)C3)cc12 | 0.44 |  | 8.75 | 8.48 | 4.96 | 6.85 |
| COc1cccc2sc([C@@H]3C[C@H]4CC[C@@H](C3)N4C[C@H](O)COc3cccc4[nH]ccc34)cc12 (stereo in doubt; endo) [listing 1 of 2 here] |  | > 50 |  |  |  |  |
| COc1cccc2sc([C@@H]3C[C@H]4CC[C@@H](C3)N4C[C@H](O)COc3cccc4[nH]ccc34)cc12 (stereo in doubt; exo) [listing 1 of 2 here] |  |  |  | 7.22 | 4.02 |  |
| COc1ccc2cc([C@@H]3CCN(C[C@H](O)COc4cccc5[nH]ccc45)[C@@H](C)C3)sc2c1 | 1.1 |  | 2.98 | 5.26 | 6.67 | 14.5 |
| COc1cccc2sc([C@@H]3CCN(C[C@H](O)COc4cccc5[nH]ccc45)[C@H](C)C3)cc12 |  |  |  | 1.2 | 2.01 |  |
| C[C@H]1C[C@H](c2cc3cc(Cl)ccc3s2)CCN1C[C@H](O)COc1cccc2[nH]ccc12 | 0.58 |  | 5.26 | 3.97 | 6.81 | 8.34 |
| COc1cccc2sc([C@@H]3CCN(C[C@H](O)COc4cccc5[nH]ccc45)[C@@H](C)C3)cc12 |  |  |  | 7.77 |  |  |
| COc1cccc2sc([C@@H]3C[C@H]4CC[C@@H](C3)N4C[C@H](O)COc3cccc4[nH]ccc34)cc12 (stereo in doubt; endo) [listing 2 of 2 here] | 0.17 |  |  |  |  |  |
| C[C@H]1C[C@H](c2cc3ccc(F)cc3s2)CCN1C[C@H](O)COc1cccc2[nH]ccc12 | 0.31 |  | 7.45 | 5.32 | 9 | 5.52 |
| C[C@H]1C[C@H](c2cc3cccc(F)c3s2)CCN1C[C@H](O)COc1cccc2[nH]ccc12 | 3.47 |  | 4.23 | 2.66 | 6.8 | 21.9 |
| COc1cccc2sc([C@H]3CCN(C[C@H](O)COc4cccc5[nH]ccc45)[C@H](C)C3)cc12 |  |  |  | 4.41 | 5.97 |  |
| C[C@H]1C[C@H](c2cc3cc(F)ccc3s2)CCN1C[C@H](O)COc1cccc2[nH]ccc12 | 0.39 |  | 5.67 | 7.68 | 7.69 | 6.4 |
| C[C@@H]1C[C@@H](c2cc3cc(F)ccc3s2)CCN1C[C@H](O)COc1cccc2[nH]ccc12 | 0.99 |  | 16.7 | 6.35 | 10.5 | 11.7 |
| C[C@@H]1C[C@H](c2cc3cc(F)ccc3s2)CCN1C[C@H](O)COc1cccc2[nH]ccc12 | 3.53 |  | 1.76 | 7.21 | 10.8 | 8.77 |
| C[C@H]1C[C@H](c2cc3ccc(Cl)cc3s2)CCN1C[C@H](O)COc1cccc2[nH]ccc12 | 1.1 |  | 11.7 | 8.49 | 7.99 | 24.8 |
| COc1cccc2sc([C@@H]3C[C@H]4CC[C@@H](C3)N4C[C@H](O)COc3cccc4[nH]ccc34)cc12 (stereo in doubt; exo) [listing 2 of 2 here] | 1.31 |  | 18.7 |  |  | 15.7 |
| COc1cccc2sc([C@H]3CCN(C[C@H](O)COc4cccc5[nH]ccc45)[C@@H](C)C3)cc12 |  |  |  | 1.38 | 1.43 |  |
| C[C@H]1C[C@H](c2cc3ccccc3s2)CCN1C[C@H](O)COc1cccc2[nH]ccc12 | 0.51 |  | 3.28 | 6.32 | 7.5 | 3.09 |
| Cc1cc(C)c2cc([C@@H]3CCN(C[C@H](O)COc4cccc5[nH]ccc45)[C@@H](C)C3)sc2c1 | 1.93 |  |  |  |  | 94.9 |
| C[C@H]1C[C@@H](c2cc3cc(F)ccc3s2)CCN1C[C@H](O)COc1cccc2[nH]ccc12 | 4.22 |  | 16.5 | 3.24 | 7.87 | 36.8 |
| Cc1ccc2cc([C@@H]3CCN(C[C@H](O)COc4cccc5[nH]ccc45)[C@@H](C)C3)sc2c1 | 2.24 | < 50 |  |  |  |  |
| O[C@H](COc1cccc2[nH]ccc12)CN1[C@@H]2CC[C@H]1C[C@H](c1cc3ccccc3s1)C2 | 0.07 |  | 70.1 | 9.26 | 9.4 | 30.5 |
| COc1ccc2sc([C@@H]3CCN(C[C@H](O)COc4cccc5[nH]ccc45)[C@@H](C)C3)cc2c1OC | 10.8 |  | 0.98 | 8.38 | 4.8 | 1.3 |

Reference: ChEMBL document CHEMBL1136114, “Advances Toward new antidepressants beyond SSRIs: 1-aryloxy-3-piperidinylpropan-2-ols with dual 5-HT(1A) receptor antagonism/SSRI activities. Part 2” (Bioorg Med Chem Lett, 2003)
